From patent US20090239840A1, “AMINO SUBSTITUTED DIARYL[a,d]CYCLOHEPTENE ANALOGS AS [sequence] AGONISTS AND METHODS OF TREATMENT OF NEUROPSYCHIATRIC DISORDERS” (ACADIA PHARMACEUTICALS, INC., priority 2003, published 2009)
Like-named read-outs stand apart in the source and are kept apart here.

Assays:
muscarinic M1 receptor = target: T1, muscarinic M1 receptor (Homo sapiens, UniProt P11229); assay: R-SAT functional screen, M1; type: cell-based; details: for Emax: read-out: M1 eff (efficacy)
T1 construct: expressed in transfected cells
T1 sequence (P11229 1-460): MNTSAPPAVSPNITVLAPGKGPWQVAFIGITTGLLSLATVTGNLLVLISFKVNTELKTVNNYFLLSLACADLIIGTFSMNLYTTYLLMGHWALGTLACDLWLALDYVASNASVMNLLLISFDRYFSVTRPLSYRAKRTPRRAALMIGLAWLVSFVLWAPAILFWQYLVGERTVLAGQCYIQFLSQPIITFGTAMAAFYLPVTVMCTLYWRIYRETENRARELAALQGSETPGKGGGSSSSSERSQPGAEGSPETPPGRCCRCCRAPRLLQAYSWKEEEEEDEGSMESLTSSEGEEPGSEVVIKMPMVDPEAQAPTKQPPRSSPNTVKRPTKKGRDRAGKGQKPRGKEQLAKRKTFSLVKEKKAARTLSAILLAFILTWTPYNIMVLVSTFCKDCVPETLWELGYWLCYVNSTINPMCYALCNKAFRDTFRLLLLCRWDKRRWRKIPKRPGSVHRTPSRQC
Description: (§1) Several compounds disclosed herein were evaluated for activity at muscarinic receptors using Receptor Selection and Amplification Technology (R-SAT) as described in U.S. Pat. No. 5,707,798, the disclosure of which is incorporated herein by reference in its entirety. The efficacy (eff) and potency (expressed as pEC50) of these compounds are presented in Table 1 at M1, M2, and M3 receptors.

muscarinic M2 receptor = target: T2, muscarinic M2 receptor (Homo sapiens, UniProt P08172); assay: R-SAT functional screen, M2; type: cell-based; details: for Emax: read-out: M2 eff (efficacy)
T2 construct: expressed in transfected cells
T2 sequence (P08172 1-466): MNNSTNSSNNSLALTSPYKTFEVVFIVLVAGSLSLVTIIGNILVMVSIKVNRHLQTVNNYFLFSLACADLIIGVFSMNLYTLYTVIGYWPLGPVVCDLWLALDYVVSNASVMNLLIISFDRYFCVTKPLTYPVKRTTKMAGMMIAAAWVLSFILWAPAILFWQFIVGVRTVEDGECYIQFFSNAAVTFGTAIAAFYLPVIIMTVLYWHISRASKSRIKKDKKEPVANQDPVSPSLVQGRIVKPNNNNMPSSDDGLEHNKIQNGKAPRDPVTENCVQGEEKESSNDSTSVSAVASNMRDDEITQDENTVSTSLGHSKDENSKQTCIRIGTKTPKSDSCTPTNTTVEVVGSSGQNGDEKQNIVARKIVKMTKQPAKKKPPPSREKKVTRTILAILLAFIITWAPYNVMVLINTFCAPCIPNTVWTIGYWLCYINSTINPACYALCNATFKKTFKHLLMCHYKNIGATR
Description: as §1

[1] = R-SAT, read-out: M2 pEC50 (converted)
[2] = R-SAT, read-out: M1 pEC50 (converted)

Compound | EC50 (muscarinic M1 receptor) [nM] | Emax (muscarinic M1 receptor) [%] | EC50 (muscarinic M2 receptor) [nM] | Emax (muscarinic M2 receptor) [%] | Emax (muscarinic M1 receptor; R-SAT) [%] | Emax (muscarinic M2 receptor; R-SAT) [%] | EC50 (muscarinic M2 receptor; [1]) [nM] | EC50 (muscarinic M1 receptor; [2]) [nM]
Clc1ccc2c(c1)N=C(N1CCCNCC1)c1ccccc1N2 [8-Chloro-11-[1,4]diazepam-1-yl-5H-dibenzo[b,e][1,4]diazepine] | 100 | 37 | 631 | 82 | – | – | – | –
Fc1ccc2c(c1)N=C(N1CCNCC1)c1ccccc1C2 [3-Fluoro-6-piperazin-1-yl-11H-dibenzo[b,e]azepine] | – | – | – | – | 23 | 55 | 794 | –
FC(F)(F)c1ccc2c(c1)N=C(N1CCNCC1)c1cc(Cl)ccc1N2 [2-Chloro-11-(piperazin-1-yl)-8-trifluoromethyl-5H-dibenzo[b,e][1,4]diazepine] | – | – | – | – | 10 | 19 | – | –
N#Cc1ccc2c(c1)N=C(N1CCNCC1)c1ccccc1N2 [11-(piperazin-1-yl)-5H-dibenzo[b,e][1,4]diazepine-8-carbonitrile] | – | – | – | – | 49 | 106 | 1000 | 251
Clc1ccc2c(c1)Nc1ccc(Br)cc1N=C2N1CCNCC1 [8-Bromo-3-chloro-11-(piperazin-1-yl)-5H-dibenzo[b,e][1,4]diazepine] | – | – | – | – | 31 | 34 | 316 | 251
Clc1ccc2c(c1)N=C(N1CCOCC1)c1ccccc1N2 [8-Chloro-11-(morpholin-4-yl)-5H-dibenzo[b,e][1,4]diazepine] | – | – | – | – | 11 | 6 | – | –
Brc1ccc2c(c1)N=C(N1CCNCC1)CCN2 [7-Bromo-4-(piperazin-1-yl)-2,3-dihydro-1H-benzo[b][1,4]diazepine] | – | – | – | – | 56 | 3 | – | 2510
Clc1ccc2c(c1)N=C(N1CC3CC1CN3)c1ccccc1N2 (stereo not shown) [8-Chloro-11-(2,5-diaza-bicyclo[2.2.1]hept-2-yl)-5H-dibenzo[b,e][1,4]diazepine] | – | – | – | – | 34 | 49 | 2510 | 251
Clc1ccc2c(c1)N=C(C1CCNCC1)c1ccccc1N2 [8-Chloro-11-(piperidin-4-yl)-5H-dibenzo[b,e][1,4]diazepine] | – | – | – | – | 57 | 31 | 2000 | 631
Brc1ccc2c(c1)N=C(N1CCNCC1)C1CCCC1N2 (stereo not shown) [7-Bromo-10-(piperazin-1-yl)-1,2,3,3a,4,10a-hexahydro-benzo[b]cyclopenta[e][1,4]diazepine] | – | – | – | – | 50 | 12 | – | 1580
CN1c2ccc(Br)cc2N=C(N2CCNCC2)c2ccccc21 [8-Bromo-5-methyl-11-(piperazin-1-yl)-5H-dibenzo[b,e][1,4]diazepine] | – | – | – | – | 92 | 75 | 2510 | 398
Cc1ccc2c(c1)C(N1CCNCC1)=Nc1cc(Cl)ccc1N2 [8-Chloro-2-methyl-11-(piperazin-1-yl)-5H-dibenzo[b,e][1,4]diazepine] | – | – | – | – | 14 | 28 | 1260 | –
Fc1ccc2c(c1)N=C(N1CCNCC1)c1ccccc1N2 [8-Fluoro-11-(piperazin-1-yl)-5H-dibenzo[b,e][1,4]diazepine] | – | – | – | – | 32 | 95 | 2000 | 200
Clc1ccc2c(c1)N=C(c1cn[nH]c1)c1ccccc1N2 [8-Chloro-11-(1H-pyrazol-4-yl)-5H-dibenzo[b,e][1,4]diazepine] | – | – | – | – | 9 | 3 | – | –
CNCCNC1=Nc2cc(Cl)ccc2Nc2ccccc21 [N′-(8-Chloro-5H-dibenzo[b,e][1,4]diazepine-11-yl)-N-methyl-ethane-12-diamine] | – | – | – | – | 5 | 8 | – | –
CC1CN(C2=Nc3cc(Cl)ccc3Nc3ccccc32)CC(C)N1 (stereo not shown) [8-Chloro-11-(3,5-dimethyl-piperazin-1-yl)-5H-dibenzo[b,e][1,4]diazepine] | – | – | – | – | 18 | 97 | 2510 | –
Clc1ccc2c(c1)N=C(N1CCNCC1)c1ccccc1O2 [8-Chloro-11-(piperazin-1-yl)-dibenzo[b,f][1,4]oxazepine] | – | – | – | – | 52 | 58 | 1000 | 100
